{
  "source": "paper PMC9150124",
  "about": "“Design of a Potent, Selective, and Brain-Penetrant Inhibitor of Wnt-Deactivating Enzyme Notum by Optimization of a Crystallographic Fragment Hit” (Journal of Medicinal Chemistry, 2022)",
  "assay_in_all_cases": "SelectScreen kinase profiling, SSBK ZLyte SP Technology",
  "type_in_all_cases": "biochemical",
  "key": {"[1]": {"molecular_target": "kinase named in conditions (Homo sapiens, UniProt O15146)", "settings": "MUSK, 10 μM", "description": "(§1) Kinase selectivity screening was performed by Thermo Fisher Scientific (Paisley, U.K.) in their SelectScreen Biochemical Kinase Profiling Service. Assay information and data are presented in the Supporting Information.\n(§2) Kinase selectivity screening was performed by ThermoFisher Scientific (Paisley, U.K.) in their SelectScreenTM\n(§3) Biochemical Kinase Profiling service ."}, "[2]": {"molecular_target": "kinase named in conditions (Homo sapiens, UniProt P00533, C797S)", "settings": "EGFR (ErbB1) C797S, 10 μM", "description": "as §1, §2, §3"}, "[3]": {"molecular_target": "kinase named in conditions (Homo sapiens, UniProt P00533, G719C)", "settings": "EGFR (ErbB1) G719C, 10 μM", "description": "as §1, §2, §3"}, "[4]": {"molecular_target": "kinase named in conditions (Homo sapiens, UniProt P04049, Y340D/Y341D)", "settings": "RAF1 (cRAF) Y340D Y341D, 10 μM", "description": "as §1, §2, §3"}, "[5]": {"molecular_target": "kinase named in conditions (Homo sapiens, UniProt P04629)", "settings": "NTRK1 (TRKA), 10 μM", "description": "as §1, §2, §3"}, "[6]": {"molecular_target": "kinase named in conditions (Homo sapiens, UniProt P10721, V559D)", "sequence (P10721 26-976 V559D)": "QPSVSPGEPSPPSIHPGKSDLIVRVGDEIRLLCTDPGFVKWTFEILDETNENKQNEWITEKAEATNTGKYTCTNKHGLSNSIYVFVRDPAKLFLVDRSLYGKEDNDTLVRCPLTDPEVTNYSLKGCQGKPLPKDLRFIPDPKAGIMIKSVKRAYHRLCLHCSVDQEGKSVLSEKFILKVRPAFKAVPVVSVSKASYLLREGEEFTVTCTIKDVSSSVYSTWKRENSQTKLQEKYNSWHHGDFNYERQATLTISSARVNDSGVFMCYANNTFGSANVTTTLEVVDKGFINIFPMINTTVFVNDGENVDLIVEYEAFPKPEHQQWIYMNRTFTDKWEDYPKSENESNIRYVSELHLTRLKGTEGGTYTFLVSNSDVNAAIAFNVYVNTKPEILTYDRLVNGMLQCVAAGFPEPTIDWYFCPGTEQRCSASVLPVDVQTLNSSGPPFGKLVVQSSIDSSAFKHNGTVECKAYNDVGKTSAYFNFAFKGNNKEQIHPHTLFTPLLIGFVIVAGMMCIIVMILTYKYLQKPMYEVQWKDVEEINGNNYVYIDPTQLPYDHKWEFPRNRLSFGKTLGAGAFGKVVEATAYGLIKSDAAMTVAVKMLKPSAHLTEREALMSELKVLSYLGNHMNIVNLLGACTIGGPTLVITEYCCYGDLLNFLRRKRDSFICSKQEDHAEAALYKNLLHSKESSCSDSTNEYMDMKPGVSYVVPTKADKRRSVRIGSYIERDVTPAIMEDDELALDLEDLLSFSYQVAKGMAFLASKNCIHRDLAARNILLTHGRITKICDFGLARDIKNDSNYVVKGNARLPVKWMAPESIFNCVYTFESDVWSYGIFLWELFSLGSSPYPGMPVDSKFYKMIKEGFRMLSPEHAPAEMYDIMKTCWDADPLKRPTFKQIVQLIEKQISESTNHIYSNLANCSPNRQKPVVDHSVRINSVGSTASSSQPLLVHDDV", "settings": "KIT V559D, 10 μM", "description": "as §1, §2, §3"}, "[7]": {"molecular_target": "kinase named in conditions (Homo sapiens, UniProt P10721, V560G)", "sequence (P10721 26-976 V560G)": "as the sequence (P10721 26-976 V559D) above, with D534V, V535G counted along it", "settings": "KIT V560G, 10 μM", "description": "as §1, §2, §3"}, "[8]": {"molecular_target": "kinase named in conditions (Homo sapiens, UniProt P15735)", "settings": "PHKG2, 10 μM", "description": "as §1, §2, §3"}, "[9]": {"molecular_target": "kinase named in conditions (Homo sapiens, UniProt P17252)", "settings": "PRKCA (PKC alpha), 10 μM", "description": "as §1, §2, §3"}, "[10]": {"molecular_target": "kinase named in conditions (Homo sapiens, UniProt P22455)", "settings": "FGFR4, 10 μM", "description": "as §1, §2, §3"}, "[11]": {"molecular_target": "kinase named in conditions (Homo sapiens, UniProt P35916)", "settings": "FLT4 (VEGFR3), 10 μM", "description": "as §1, §2, §3"}, "[12]": {"molecular_target": "kinase named in conditions (Homo sapiens, UniProt P42345)", "settings": "FRAP1 (mTOR), 10 μM", "description": "as §1, §2, §3"}, "[13]": {"molecular_target": "kinase named in conditions (Homo sapiens, UniProt P42679)", "settings": "MATK (HYL), 10 μM", "description": "as §1, §2, §3"}, "[14]": {"molecular_target": "kinase named in conditions (Homo sapiens, UniProt P42681)", "settings": "TXK, 10 μM", "description": "as §1, §2, §3"}, "[15]": {"molecular_target": "kinase named in conditions (Homo sapiens, UniProt P42684)", "sequence (P42684 whole entry)": "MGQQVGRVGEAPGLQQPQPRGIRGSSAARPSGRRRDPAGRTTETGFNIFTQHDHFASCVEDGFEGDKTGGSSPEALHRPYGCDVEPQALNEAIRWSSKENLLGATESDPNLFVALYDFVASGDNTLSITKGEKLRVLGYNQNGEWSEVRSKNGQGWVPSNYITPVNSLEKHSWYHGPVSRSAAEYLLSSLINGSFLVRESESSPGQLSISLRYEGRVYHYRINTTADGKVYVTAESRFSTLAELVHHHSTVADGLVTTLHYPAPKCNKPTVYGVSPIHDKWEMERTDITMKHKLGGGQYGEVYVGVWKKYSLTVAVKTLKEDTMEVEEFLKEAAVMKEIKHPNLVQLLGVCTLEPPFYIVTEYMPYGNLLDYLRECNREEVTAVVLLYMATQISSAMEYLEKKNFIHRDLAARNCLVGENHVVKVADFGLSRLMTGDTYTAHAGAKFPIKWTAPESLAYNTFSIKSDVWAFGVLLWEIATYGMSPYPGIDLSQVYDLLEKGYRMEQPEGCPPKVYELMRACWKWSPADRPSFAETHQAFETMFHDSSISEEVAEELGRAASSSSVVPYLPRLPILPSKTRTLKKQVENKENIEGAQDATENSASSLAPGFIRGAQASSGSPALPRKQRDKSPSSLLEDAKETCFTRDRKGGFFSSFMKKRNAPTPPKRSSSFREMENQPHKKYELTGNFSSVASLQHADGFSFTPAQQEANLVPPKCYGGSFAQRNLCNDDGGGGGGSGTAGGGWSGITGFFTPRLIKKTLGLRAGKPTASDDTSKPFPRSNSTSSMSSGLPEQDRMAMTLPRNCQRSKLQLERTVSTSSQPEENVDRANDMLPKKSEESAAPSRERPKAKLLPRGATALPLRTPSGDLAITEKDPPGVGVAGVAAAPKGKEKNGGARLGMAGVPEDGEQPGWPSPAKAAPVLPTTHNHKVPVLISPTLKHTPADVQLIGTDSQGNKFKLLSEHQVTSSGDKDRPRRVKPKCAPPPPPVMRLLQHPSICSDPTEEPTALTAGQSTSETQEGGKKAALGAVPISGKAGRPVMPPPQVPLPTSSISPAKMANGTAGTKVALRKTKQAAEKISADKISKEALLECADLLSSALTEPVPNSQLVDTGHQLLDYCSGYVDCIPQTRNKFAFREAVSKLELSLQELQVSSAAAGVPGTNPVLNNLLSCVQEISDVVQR", "settings": "ABL2 (Arg), 10 μM", "description": "as §1, §2, §3"}, "[16]": {"molecular_target": "kinase named in conditions (Homo sapiens, UniProt P49674)", "settings": "CSNK1E (CK1 epsilon), 10 μM", "description": "as §1, §2, §3"}, "[17]": {"molecular_target": "kinase named in conditions (Homo sapiens, UniProt P49841)", "settings": "GSK3B (GSK3 beta), 10 μM", "description": "as §1, §2, §3"}, "[18]": {"molecular_target": "kinase named in conditions (Homo sapiens, UniProt P51817)", "settings": "PRKX, 10 μM", "description": "as §1, §2, §3"}, "[19]": {"molecular_target": "kinase named in conditions (Homo sapiens, UniProt P52333)", "settings": "JAK3, 10 μM", "description": "as §1, §2, §3"}, "[20]": {"molecular_target": "kinase named in conditions (Homo sapiens, UniProt P52564)", "sequence (P52564 whole entry)": "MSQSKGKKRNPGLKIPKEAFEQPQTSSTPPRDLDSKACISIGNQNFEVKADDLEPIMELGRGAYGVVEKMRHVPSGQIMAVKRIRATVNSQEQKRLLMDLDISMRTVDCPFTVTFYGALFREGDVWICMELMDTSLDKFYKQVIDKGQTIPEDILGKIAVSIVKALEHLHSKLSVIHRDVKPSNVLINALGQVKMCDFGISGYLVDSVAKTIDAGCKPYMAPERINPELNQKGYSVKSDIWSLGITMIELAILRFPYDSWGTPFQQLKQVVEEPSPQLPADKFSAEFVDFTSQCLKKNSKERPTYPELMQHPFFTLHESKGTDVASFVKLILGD", "settings": "MAP2K6 (MKK6), 10 μM", "description": "as §1, §2, §3"}, "[21]": {"molecular_target": "kinase named in conditions (Homo sapiens, UniProt P54756)", "settings": "EPHA5, 10 μM", "description": "as §1, §2, §3"}, "[22]": {"molecular_target": "kinase named in conditions (Homo sapiens, UniProt Q13131)", "sequence (Q13131 whole entry)": "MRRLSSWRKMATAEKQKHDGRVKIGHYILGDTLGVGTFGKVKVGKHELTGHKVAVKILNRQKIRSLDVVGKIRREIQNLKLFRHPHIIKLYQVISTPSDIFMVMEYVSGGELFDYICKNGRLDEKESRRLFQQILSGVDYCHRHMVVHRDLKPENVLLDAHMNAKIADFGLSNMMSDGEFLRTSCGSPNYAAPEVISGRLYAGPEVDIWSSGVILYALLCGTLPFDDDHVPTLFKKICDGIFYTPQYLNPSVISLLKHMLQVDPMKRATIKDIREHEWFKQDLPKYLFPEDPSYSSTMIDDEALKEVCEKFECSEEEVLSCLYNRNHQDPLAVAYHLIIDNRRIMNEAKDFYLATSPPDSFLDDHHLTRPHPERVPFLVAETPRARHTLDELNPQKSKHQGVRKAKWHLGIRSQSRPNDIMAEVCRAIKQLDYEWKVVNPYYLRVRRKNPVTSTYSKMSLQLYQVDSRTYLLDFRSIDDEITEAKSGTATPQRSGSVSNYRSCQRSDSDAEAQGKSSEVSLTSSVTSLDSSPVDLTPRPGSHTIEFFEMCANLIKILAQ", "description": "as §1, §2, §3"}, "[23]": {"molecular_target": "kinase named in conditions (Homo sapiens, UniProt Q13464)", "settings": "ROCK1, 10 μM", "description": "as §1, §2, §3"}, "[24]": {"molecular_target": "kinase named in conditions (Homo sapiens, UniProt Q13557)", "sequence (Q13557 whole entry)": "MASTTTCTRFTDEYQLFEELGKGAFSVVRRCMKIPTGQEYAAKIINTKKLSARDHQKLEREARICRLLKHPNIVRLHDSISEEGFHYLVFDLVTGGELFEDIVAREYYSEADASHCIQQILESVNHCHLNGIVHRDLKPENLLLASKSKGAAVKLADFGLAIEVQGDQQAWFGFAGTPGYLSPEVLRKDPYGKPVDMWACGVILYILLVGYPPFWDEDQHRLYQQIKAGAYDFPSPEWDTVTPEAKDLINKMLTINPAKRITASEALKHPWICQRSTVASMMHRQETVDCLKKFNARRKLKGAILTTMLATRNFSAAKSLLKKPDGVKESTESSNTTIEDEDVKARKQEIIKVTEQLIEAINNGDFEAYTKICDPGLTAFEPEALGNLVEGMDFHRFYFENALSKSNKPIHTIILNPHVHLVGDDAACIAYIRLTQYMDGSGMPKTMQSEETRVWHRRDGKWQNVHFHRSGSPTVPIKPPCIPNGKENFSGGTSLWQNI", "settings": "CAMK2D (CaMKII delta), 10 μM", "description": "as §1, §2, §3"}, "[25]": {"molecular_target": "kinase named in conditions (Homo sapiens, UniProt Q13882)", "settings": "PTK6 (Brk), 10 μM", "description": "as §1, §2, §3"}, "[26]": {"molecular_target": "kinase named in conditions (Homo sapiens, UniProt Q16288)", "settings": "NTRK3 (TRKC), 10 μM", "description": "as §1, §2, §3"}, "[27]": {"molecular_target": "kinase named in conditions (Homo sapiens, UniProt Q16512)", "settings": "PKN1 (PRK1), 10 μM", "description": "as §1, §2, §3"}, "[28]": {"molecular_target": "kinase named in conditions (Homo sapiens, UniProt Q16539)", "sequence (Q16539 whole entry)": "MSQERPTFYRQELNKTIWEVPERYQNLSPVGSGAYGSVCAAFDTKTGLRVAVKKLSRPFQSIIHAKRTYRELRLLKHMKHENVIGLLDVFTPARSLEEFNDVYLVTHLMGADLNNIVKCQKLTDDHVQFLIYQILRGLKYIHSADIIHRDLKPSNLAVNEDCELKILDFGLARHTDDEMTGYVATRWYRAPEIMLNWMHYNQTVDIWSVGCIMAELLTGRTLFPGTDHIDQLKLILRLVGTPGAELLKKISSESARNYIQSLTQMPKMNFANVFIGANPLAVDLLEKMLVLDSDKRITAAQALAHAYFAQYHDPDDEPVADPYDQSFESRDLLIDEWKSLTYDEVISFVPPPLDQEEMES", "settings": "10 μM", "description": "as §1, §2, §3"}, "[29]": {"molecular_target": "kinase named in conditions (Homo sapiens, UniProt Q86V86)", "settings": "PIM3, 10 μM", "description": "as §1, §2, §3"}, "[30]": {"molecular_target": "kinase named in conditions (Homo sapiens, UniProt Q96NX5)", "settings": "CAMK1G (CAMKI gamma), 10 μM", "description": "as §1, §2, §3"}, "[31]": {"molecular_target": "kinase named in conditions (Homo sapiens, UniProt Q9UPE1)", "settings": "STK23 (MSSK1), 10 μM", "description": "as §1, §2, §3"}, "[32]": {"molecular_target": "kinase named in conditions (Homo sapiens, UniProt Q9Y6M4)", "settings": "CSNK1G3 (CK1 gamma 3), 10 μM", "description": "as §1, §2, §3"}, "[33]": {"test_system": "kinase named in conditions", "description": "as §1, §2, §3"}},
  "data": [
    {"smiles": "FC(F)(F)c1c(Cl)ccc(-n2ccnn2)c1Cl", "note": "[8l, 1-(2,4-Dichloro-3-(trifluoromethyl)phenyl)-1H-1,2,3-triazole]", "values": [
      {"measurement": "inhibition at 10 µM", "setting": "[1]", "result": -4, "unit": "%"},
      {"measurement": "inhibition at 10 µM", "setting": "[2]", "result": -2, "unit": "%"},
      {"measurement": "inhibition at 10 µM", "setting": "[3]", "result": 5, "unit": "%"},
      {"measurement": "inhibition at 10 µM", "setting": "[4]", "result": 10, "unit": "%"},
      {"measurement": "inhibition at 10 µM", "setting": "[5]", "result": 3, "unit": "%"},
      {"measurement": "inhibition at 10 µM", "setting": "[6]", "result": -3, "unit": "%"},
      {"measurement": "inhibition at 10 µM", "setting": "[7]", "result": 3, "unit": "%"},
      {"measurement": "inhibition at 10 µM", "setting": "[8]", "result": 8, "unit": "%"},
      {"measurement": "inhibition at 10 µM", "setting": "[9]", "result": -18, "unit": "%"},
      {"measurement": "inhibition at 10 µM", "setting": "[10]", "result": 2, "unit": "%"},
      {"measurement": "inhibition at 10 µM", "setting": "[11]", "result": 0, "unit": "%"},
      {"measurement": "inhibition at 10 µM", "setting": "[12]", "result": 4, "unit": "%"},
      {"measurement": "inhibition at 10 µM", "setting": "[13]", "result": -11, "unit": "%"},
      {"measurement": "inhibition at 10 µM", "setting": "[14]", "result": 4, "unit": "%"},
      {"measurement": "inhibition at 10 µM", "setting": "[15]", "result": 10, "unit": "%"},
      {"measurement": "inhibition at 10 µM", "setting": "[16]", "result": 1, "unit": "%"},
      {"measurement": "inhibition at 10 µM", "setting": "[17]", "result": 7, "unit": "%"},
      {"measurement": "inhibition at 10 µM", "setting": "[18]", "result": 6, "unit": "%"},
      {"measurement": "inhibition at 10 µM", "setting": "[19]", "result": 7, "unit": "%"},
      {"measurement": "inhibition at 10 µM", "setting": "[20]", "result": 3, "unit": "%"},
      {"measurement": "inhibition at 10 µM", "setting": "[21]", "result": 0, "unit": "%"},
      {"measurement": "inhibition at 10 µM", "setting": "[22]; AMPK (A1/B2/G2), 10 μM", "result": 6, "unit": "%"},
      {"measurement": "inhibition at 10 µM", "setting": "[22]; AMPK (A1/B2/G3), 10 μM", "result": 6, "unit": "%"},
      {"measurement": "inhibition at 10 µM", "setting": "[22]; AMPK A1/B1/G1, 10 μM", "result": 14, "unit": "%"},
      {"measurement": "inhibition at 10 µM", "setting": "[23]", "result": 8, "unit": "%"},
      {"measurement": "inhibition at 10 µM", "setting": "[24]", "result": 7, "unit": "%"},
      {"measurement": "inhibition at 10 µM", "setting": "[25]", "result": 6, "unit": "%"},
      {"measurement": "inhibition at 10 µM", "setting": "[26]", "result": 17, "unit": "%"},
      {"measurement": "inhibition at 10 µM", "setting": "[27]", "result": -1, "unit": "%"},
      {"measurement": "inhibition at 10 µM", "setting": "[28]; MAPK14 (p38 alpha) Direct", "result": -3, "unit": "%"},
      {"measurement": "inhibition at 10 µM", "setting": "[28]; MAPK14 (p38 alpha)", "result": -1, "unit": "%"},
      {"measurement": "inhibition at 10 µM", "setting": "[29]", "result": 6, "unit": "%"},
      {"measurement": "inhibition at 10 µM", "setting": "[30]", "result": 2, "unit": "%"},
      {"measurement": "inhibition at 10 µM", "setting": "[31]", "result": 0, "unit": "%"},
      {"measurement": "inhibition at 10 µM", "setting": "[32]", "result": 0, "unit": "%"},
      {"measurement": "% Inhibition mean", "setting": "[33]; LYN B, 10 μM", "result": 7, "unit": "%"},
      {"measurement": "% Inhibition mean", "setting": "[33]; PRKCB2 (PKC beta II), 10 μM", "result": -17, "unit": "%"},
      {"measurement": "% Inhibition mean", "setting": "[33]; SRC N1, 10 μM", "result": 4, "unit": "%"}
    ]}
  ]
}
